In ChEMBL document CHEMBL4622901, “Vinyl sulfone-based inhibitors of trypanosomal cysteine protease rhodesain with improved antitrypanosomal activities” (Bioorg Med Chem Lett, 2020):

How the values were obtained:
Trypanosoma brucei = assay: Antitrypanosomal activity against Trypanosoma brucei; assay type: functional, organism-based
[1] = Cytotoxicity against human HepG2 cells assessed as reduction in cell viability; assay type: cell-based
[2] = Selectivity index, ratio of CC50 for human HepG2 cells to EC50 for Trypanosoma brucei; assay type: toxicity; conditions: read-out: Ratio CC50/EC50
[3] = target: Rhodesain (Trypanosoma brucei rhodesiense) (UniProt Q95PM0); assay: Inhibition of Trypanosoma brucei rhodesain assessed as Kinact/Ki ratio
[4] = target: Rhodesain (Trypanosoma brucei rhodesiense) (UniProt Q95PM0); assay: Inhibition of Trypanosoma brucei rhodesain at 10 uM measured after 1 hr relative to control

Sequence of Rhodesain (Trypanosoma brucei rhodesiense) (Q95PM0 1-450): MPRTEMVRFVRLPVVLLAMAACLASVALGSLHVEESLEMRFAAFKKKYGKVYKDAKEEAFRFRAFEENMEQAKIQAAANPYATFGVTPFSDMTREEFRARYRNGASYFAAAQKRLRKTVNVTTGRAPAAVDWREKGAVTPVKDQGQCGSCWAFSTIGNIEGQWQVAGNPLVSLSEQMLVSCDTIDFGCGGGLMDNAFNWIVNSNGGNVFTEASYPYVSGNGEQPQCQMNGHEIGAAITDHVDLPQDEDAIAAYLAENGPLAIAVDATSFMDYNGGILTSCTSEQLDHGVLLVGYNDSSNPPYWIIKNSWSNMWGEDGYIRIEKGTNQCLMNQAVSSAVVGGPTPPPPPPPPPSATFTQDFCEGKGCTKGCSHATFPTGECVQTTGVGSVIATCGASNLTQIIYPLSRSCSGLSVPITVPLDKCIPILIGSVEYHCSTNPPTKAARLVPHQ

Row | SMILES | EC50 (Trypanosoma brucei) [µM] | kinact/Ki [3] [M⁻¹ s⁻¹] | inhibition [4] [%] | CC50 [1] [µM] | selectivity ratio [2]
1 | Cn1cc([N+](=O)[O-])nc1C(=O)N[C@H](/C=C/S(=O)(=O)c1ccccc1)CCc1ccccc1 | 7.04 | 59 | 91.9 | 28.8 | 4.08
2 | O=C(Cc1ccccn1)N[C@H](/C=C/S(=O)(=O)c1ccccc1)CCc1ccccc1 | > 20 | – | – | 37.9 | –
3 | O=C(N[C@H](/C=C/S(=O)(=O)c1ccccc1)Cc1ccccc1)c1cccc2cccnc12 | 11.7 | – | – | 25.3 | 2.16
4 | CC(C)C[C@@H](/C=C/S(=O)(=O)c1ccccc1)NC(=O)c1cccc2cccnc12 | 7.98 | – | – | 15.1 | 1.89
5 | O=C(NC/C=C/S(=O)(=O)c1ccccc1)c1cccc2cccnc12 | 14.3 | – | – | 55.5 | 3.86
6 | COc1cc([C@@H]2c3cc4c(cc3[C@H](O)[C@H]3COC(=O)[C@H]23)OCO4)cc(OC)c1OC [PODOFILOX] | – | – | – | < 0.5 | –
7 | CCC[C@@H](/C=C/S(=O)(=O)c1ccccc1)NC(=O)c1cccc2cccnc12 | 9.23 | 82.1 | 93.5 | > 80 | > 8.66
8 | Cc1ncn(C)c1C(=O)N[C@H](/C=C/S(=O)(=O)c1ccccc1)CCc1ccccc1 | 19.6 | – | – | 34.4 | 1.76
9 | O=C(N[C@H](/C=C/S(=O)(=O)c1ccccc1)CCc1ccccc1)[C@@H]1CSCN1 | 6.94 | 161 | 99.3 | 77.8 | 11.2
10 | O=C(N[C@H](/C=C/S(=O)(=O)c1ccccc1)CCc1ccccc1)c1cccc2c1NCCC2 | 6.3 | 245 | 100 | > 160 | > 25

The remaining molecules from weak to strong by EC50 (Trypanosoma brucei), led by results:

Row | EC50 (Trypanosoma brucei) [µM] | kinact/Ki [3] [M⁻¹ s⁻¹] | inhibition [4] [%] | SMILES | CC50 [1] [µM] | selectivity ratio [2]
11 | 6.2 | 108 | 96.2 | CCCC[C@@H](/C=C/S(=O)(=O)c1ccccc1)NC(=O)c1cccc2cccnc12 | 36.5 | 6.38
12 | 5.97 | – | 100 | O=C(N[C@H](/C=C/S(=O)(=O)c1ccccc1)CCc1ccccc1)c1cccc2cccnc12 | > 80 | > 13.4
13 | 5.9 | 293 | 99.1 | O=C(N[C@H](/C=C/S(=O)(=O)c1ccccc1)CCc1ccccc1)c1cccc2nccnc12 | 39.6 | 6.71
14 | 3.02 | – | – | C[C@H]1CC(C)(C)Nc2c(C(=O)N[C@H](/C=C/S(=O)(=O)c3ccccc3)CCc3ccccc3)cccc21 | > 300 | > 99.3
15 | 1.88 | – | – | CC1=CC(C)(C)Nc2c(C(=O)N[C@H](/C=C/S(=O)(=O)c3ccccc3)CCc3ccccc3)cccc21 | > 300 | > 160
16 | 0.69 | – | 100 | O=C(N[C@H](/C=C/S(=O)(=O)c1ccccc1)CCc1ccccc1)c1ccc([N+](=O)[O-])s1 | 12.4 | 18
17 | 0.11 | – | 78.1 | O=C(N[C@H](/C=C/S(=O)(=O)c1ccccc1)CCc1ccccc1)c1ccc([N+](=O)[O-])o1 | 5.17 | 47
18 | 0.004 | – | – | Cc1ccc(C(=O)Nc2ccc(S(=O)(=O)O)c3cc(S(=O)(=O)O)cc(S(=O)(=O)O)c23)cc1NC(=O)c1cccc(NC(=O)Nc2cccc(C(=O)Nc3cc(C(=O)Nc4ccc(S(=O)(=O)O)c5cc(S(=O)(=O)O)cc(S(=O)(=O)O)c45)ccc3C)c2)c1 [SURAMIN] | – | –
